Laboratory results as given in ChEMBL document CHEMBL4673280, “Discovery and SAR studies of 2-alkyl-3-phenyl-2,4,5,6,7,8-hexahydropyrazolo[3,4-d]azepines as 5-HT inhibitors leading to the identification of a clinical candidate” (Bioorg Med Chem Lett, 2021).
“And” between values parts separate entries of the source, which are not always exact repeats. Identical values can stand only once. The source made the active and inactive calls. The calls are words filed in the database; no cut-off is given here.

How the values were obtained:
[1] = Plasma concentration that yields to require for maximal inhibition of 5-HT7 receptor mediated hypothermia in 5-CT-stimulated rat at 0.3 mg/kg, po compound administered 20 mins prior to 5-CT injection; assay type: organism-based
[2] = Protein binding in human plasma assessed as unbound fraction; assay type: ADME, cell-free
[3] = AUC in rat brain at 10 mg/kg, po; assay type: ADME, organism-based; set-up: dose 10 mg/kg
[4] = target: 5-hydroxytryptamine receptor 2B (Homo sapiens, UniProt P41595); assay: Displacement of [3H]-ketanserin from human 5-HT2B receptor by competitive radioligand binding assay
[5] = Tmax in rat at 3 mg/kg, sc; assay type: ADME, organism-based; details: in vivo
[6] = target: 5-hydroxytryptamine receptor 2A (Homo sapiens, UniProt P28223); assay: Antagonist activity at 5-HT2A receptor (unknown origin) by calcium mobilization assay; assay type: functional; details: filed as antagonist
[7] = Half life in rat plasma at 10 mg/kg, po; assay type: ADME, organism-based
[8] = Metabolic stability in rat liver microsomes assessed as half life; assay type: ADME, Microsome
[9] = AUC in rat at 3 mg/kg, sc; assay type: ADME, organism-based; set-up: dose 3 mg/kg; details: in vivo
[10] = Tmax in rat at 3 mg/kg, po; assay type: ADME, organism-based; details: in vivo
[11] = AUC in rat plasma at 10 mg/kg, po; assay type: ADME, organism-based; set-up: dose 10 mg/kg
[12] = Clearance in rat brain at 10 mg/kg, po; assay type: ADME, organism-based; details: in vivo
[13] = Ratio of plasma concentration that yields to require for inhibition of alpha1 adrenergic receptor-mediated mydriasis in phenylephrine-stimulated rat to MED for inhibition of 5-HT7 receptor mediated hypothermia in po dosed 5-CT-stimulated rat; assay type: organism-based
Rattus norvegicus = assay: In vivo antagonist activity at 5-HT7 receptor in rat assessed as maximal inhibition of 5-CT induced hypothermia at 0.3 mg/kg, po compound administered 20 mins prior to 5-CT injection; assay type: functional, organism-based
[14] = Efflux ratio of apparent permeability in human Caco2 cells; assay type: ADME, cell-based; details: Caco-2
[15] = In vivo antagonist activity at 5-HT2A receptor in po dosed mouse assessed as inhibition of DOI-induced head twitch measured after 60 mins; assay type: functional; details: 1 h
[16] = Half life in rat at 3 mg/kg, sc; assay type: ADME, organism-based; details: in vivo
[17] = AUC in rat at 3 mg/kg, po; assay type: ADME, organism-based; set-up: dose 3 mg/kg; details: in vivo
[18] = target: T1, Adrenergic receptor alpha-1 (Rattus norvegicus, UniProt P15823+P23944+P43140); assay: Displacement of […] from alpha1 adrenergic receptor in rat cortex membrane incubated for 60 mins by competitive radioligand binding assay; assay type: cell membranes
T1 sequence (P15823 whole entry): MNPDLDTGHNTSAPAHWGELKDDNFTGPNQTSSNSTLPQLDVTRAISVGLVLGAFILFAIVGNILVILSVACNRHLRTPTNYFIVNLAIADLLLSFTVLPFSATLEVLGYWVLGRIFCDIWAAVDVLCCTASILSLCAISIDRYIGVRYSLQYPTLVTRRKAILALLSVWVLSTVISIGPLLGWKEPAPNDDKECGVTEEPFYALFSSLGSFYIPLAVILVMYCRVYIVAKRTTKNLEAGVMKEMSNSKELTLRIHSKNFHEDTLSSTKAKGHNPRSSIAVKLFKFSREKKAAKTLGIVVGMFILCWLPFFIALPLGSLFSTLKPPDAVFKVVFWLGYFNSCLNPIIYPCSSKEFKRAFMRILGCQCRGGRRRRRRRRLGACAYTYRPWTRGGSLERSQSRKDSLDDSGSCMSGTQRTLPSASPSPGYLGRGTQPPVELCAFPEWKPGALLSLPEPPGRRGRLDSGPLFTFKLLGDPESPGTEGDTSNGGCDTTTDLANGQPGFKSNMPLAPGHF
T1 sequence (P23944 whole entry): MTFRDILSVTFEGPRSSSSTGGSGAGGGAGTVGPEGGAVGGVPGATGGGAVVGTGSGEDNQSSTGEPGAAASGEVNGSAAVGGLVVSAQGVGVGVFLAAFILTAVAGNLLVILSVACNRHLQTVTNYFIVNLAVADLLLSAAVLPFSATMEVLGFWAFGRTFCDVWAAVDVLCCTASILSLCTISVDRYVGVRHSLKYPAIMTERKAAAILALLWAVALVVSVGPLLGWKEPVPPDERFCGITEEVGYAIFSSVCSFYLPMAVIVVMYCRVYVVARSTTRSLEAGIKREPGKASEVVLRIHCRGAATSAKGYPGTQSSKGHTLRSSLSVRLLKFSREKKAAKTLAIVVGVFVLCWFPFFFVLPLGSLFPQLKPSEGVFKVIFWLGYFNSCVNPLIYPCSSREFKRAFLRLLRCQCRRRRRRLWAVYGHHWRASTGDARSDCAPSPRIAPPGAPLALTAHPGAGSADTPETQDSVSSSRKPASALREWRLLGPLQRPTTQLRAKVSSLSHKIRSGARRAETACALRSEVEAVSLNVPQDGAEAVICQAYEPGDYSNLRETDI
T1 sequence (P43140 whole entry): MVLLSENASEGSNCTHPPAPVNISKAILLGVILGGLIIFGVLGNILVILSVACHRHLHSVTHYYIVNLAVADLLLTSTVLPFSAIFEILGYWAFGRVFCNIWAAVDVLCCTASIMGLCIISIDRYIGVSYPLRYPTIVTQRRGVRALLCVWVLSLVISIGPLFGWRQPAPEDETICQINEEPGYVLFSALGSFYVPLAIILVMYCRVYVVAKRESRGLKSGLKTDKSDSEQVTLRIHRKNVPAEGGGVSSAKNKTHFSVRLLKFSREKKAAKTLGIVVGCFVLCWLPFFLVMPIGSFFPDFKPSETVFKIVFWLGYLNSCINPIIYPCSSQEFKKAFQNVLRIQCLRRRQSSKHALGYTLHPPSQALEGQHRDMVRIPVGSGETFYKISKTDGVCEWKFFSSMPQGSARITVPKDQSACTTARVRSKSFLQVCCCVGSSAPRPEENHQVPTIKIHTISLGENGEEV

[19] = Half life in rat at 3 mg/kg, po; assay type: ADME, organism-based; details: in vivo
[20] = Oral bioavailability in mouse; assay type: ADME, organism-based; details: in vivo
[21] = target: 5-hydroxytryptamine receptor 7 (Homo sapiens, UniProt P34969); assay: Inverse agonist activity at 5-HT7 receptor (unknown origin) by cAMP functional assay
[22] = Oral bioavailability in dog; assay type: ADME, organism-based, Canis lupus familiaris; details: in vivo
[23] = Cmax in non-human primates at 5 mg/kg, po; assay type: ADME, organism-based; set-up: route oral, dose 5 mg/kg; details: in vivo
[24] = Tmax in dog at 10 mg/kg, po; assay type: ADME, organism-based, Canis lupus familiaris; details: in vivo
[25] = Cmax in rat plasma at 10 mg/kg, po; assay type: ADME, organism-based; set-up: route oral, dose 10 mg/kg
Cytochrome P450 = assay: Inhibition of CYP450 (unknown origin) up to 10 uM; assay type: ADME, protein assay; details: human
[26] = Half life in rat brain at 10 mg/kg, po; assay type: ADME, organism-based
[27] = Oral bioavailability in monkey; assay type: ADME, organism-based, Macaca mulatta; details: rhesus monkey, in vivo
[28] = Clearance in rat at 3 mg/kg, po; assay type: ADME, organism-based; details: in vivo
[29] = In vivo antagonist activity at 5-HT7 receptor in po dosed rat assessed as inhibition of 5-CT induced hypothermia compound administered 20 mins prior to 5-CT injection and measured after 1 hr; assay type: functional; details: 1.333 h, time 80 min
[30] = Tmax in rat plasma at 10 mg/kg, po; assay type: ADME, organism-based
[31] = Tmax in non-human primates at 5 mg/kg, po; assay type: ADME, organism-based; details: in vivo

Sequence of 5-hydroxytryptamine receptor 2A (P28223 whole entry): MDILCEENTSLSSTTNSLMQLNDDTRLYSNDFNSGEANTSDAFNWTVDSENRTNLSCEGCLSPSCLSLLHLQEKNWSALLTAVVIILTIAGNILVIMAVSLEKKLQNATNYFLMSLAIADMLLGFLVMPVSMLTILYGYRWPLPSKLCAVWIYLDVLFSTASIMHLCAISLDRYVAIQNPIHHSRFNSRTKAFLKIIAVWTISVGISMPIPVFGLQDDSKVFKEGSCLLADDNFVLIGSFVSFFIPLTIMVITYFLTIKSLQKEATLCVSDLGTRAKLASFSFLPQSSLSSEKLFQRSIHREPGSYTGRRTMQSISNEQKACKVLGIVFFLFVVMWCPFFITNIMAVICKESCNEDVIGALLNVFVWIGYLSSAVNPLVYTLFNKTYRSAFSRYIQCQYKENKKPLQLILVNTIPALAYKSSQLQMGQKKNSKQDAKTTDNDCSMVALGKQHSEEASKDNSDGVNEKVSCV
Sequence of 5-hydroxytryptamine receptor 2B (P41595 whole entry): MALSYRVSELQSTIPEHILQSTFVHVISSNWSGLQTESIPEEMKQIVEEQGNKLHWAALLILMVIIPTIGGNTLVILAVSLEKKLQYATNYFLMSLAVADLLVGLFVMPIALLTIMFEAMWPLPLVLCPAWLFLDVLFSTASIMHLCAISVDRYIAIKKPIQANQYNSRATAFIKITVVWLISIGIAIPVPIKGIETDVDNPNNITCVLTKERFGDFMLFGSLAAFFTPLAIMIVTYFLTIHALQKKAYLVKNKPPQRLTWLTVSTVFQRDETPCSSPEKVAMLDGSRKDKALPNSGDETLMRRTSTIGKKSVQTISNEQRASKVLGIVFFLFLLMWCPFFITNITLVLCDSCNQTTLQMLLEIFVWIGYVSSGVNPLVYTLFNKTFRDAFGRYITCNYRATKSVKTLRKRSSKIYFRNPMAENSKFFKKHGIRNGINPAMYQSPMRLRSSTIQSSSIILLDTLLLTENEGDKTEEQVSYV
Sequence of 5-hydroxytryptamine receptor 7 (P34969 whole entry): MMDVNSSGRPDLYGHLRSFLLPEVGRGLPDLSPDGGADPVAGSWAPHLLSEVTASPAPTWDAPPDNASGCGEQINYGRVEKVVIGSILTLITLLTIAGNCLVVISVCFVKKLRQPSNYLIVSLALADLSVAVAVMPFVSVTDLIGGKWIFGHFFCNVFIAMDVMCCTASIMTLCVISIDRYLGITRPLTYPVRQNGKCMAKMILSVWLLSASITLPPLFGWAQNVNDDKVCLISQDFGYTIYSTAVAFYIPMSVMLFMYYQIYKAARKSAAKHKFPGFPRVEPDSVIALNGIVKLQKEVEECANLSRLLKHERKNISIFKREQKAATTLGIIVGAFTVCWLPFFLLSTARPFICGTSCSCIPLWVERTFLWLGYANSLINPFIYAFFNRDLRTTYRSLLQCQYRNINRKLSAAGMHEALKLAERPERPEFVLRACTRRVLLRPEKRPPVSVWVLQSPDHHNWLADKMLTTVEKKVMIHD

## CC(C)n1nc2c(c1-c1ccc(F)cc1)CCNCC2
[1]
  concentration at 20 min: 27 ng/mL
[2]
  fraction unbound: 0.3
[3]
  AUC: 89 µM·h
[4]
  Ki: 19 nM
[5]
  Tmax: 0.75 h
[6]
  pKb: 8.1
[7]
  half-life: 6 h
[8]
  half-life: > 1 h
[9]
  AUC: 7.7 µM·h
[10]
  Tmax: 1.7 h
[11]
  AUC: 57 µM·h
[12]
  CL: 0.1 L/h
[13]
  selectivity ratio: 30
Rattus norvegicus
  inhibition: Active
[14]
  efflux ratio: 1.3
[15]
  ED50: 0.3 mg/kg
[16]
  half-life: 3.9 h
[17]
  AUC: 9.2 µM·h
[18]
  Ki: 170 nM
[19]
  half-life: 4.3 h
[20]
  bioavailability: 98%
[21]
  IC50: 100 nM
[22]
  bioavailability: 98%
[23]
  Cmax: 300 ng/mL
[24]
  Tmax: 0.5 h
[25]
  Cmax: 1080 ng/mL and 3.9 µM
Cytochrome P450
  inhibition (INH): Not Active
[26]
  half-life: 6.3 h
[27]
  bioavailability: 72%
[28]
  CL/F: 6.67 mL/min
[29]
  ED50: 0.05 mg/kg
[30]
  Tmax: 1 h
[31]
  Tmax: 3 h
